Earlier results as cited in patent US11376263B2, “Cyproterone acetate compositions and uses thereof” (FORTRESS BIOTECH, INC., priority 2020, dated 2022).

What was measured:
[1] = daily administration

| AUC and Cmax in obese women versus normal weight women (obese vs normal weight women) | mean oral bioavailability (oral, large inter- and intraindividual variability) | time to CPA steady state [1] | Compound |
| --- | --- | --- | --- |
| lower | approximately 45% |  | C#C[C@]1(O)CC[C@H]2[C@@H]3CCc4cc(O)ccc4[C@H]3CC[C@@]21C [EE, ethinylestradiol] |
|  |  | approximately 16 days | CC(=O)O[C@]1(C(C)=O)CC[C@H]2[C@@H]3C=C(Cl)C4=CC(=O)[C@@H]5C[C@@H]5[C@]4(C)[C@H]3CC[C@@]21C [CPA, cyproterone acetate] |
